Assay results from publication PMC10615877 (Chemistry (Weinheim an der Bergstrasse, Germany), 2023).
Read-outs that look alike come from different tables or passages of the source.

Columns and labels:
[1] = test system: thioredoxin reductase (TrxR); conditions: for inhibition: 100 µM
MDA-MB-468 cell line = conditions: TNBC MDA-MB-468 cell line; cited from earlier work
MDA-MB-231 = test: Presto Blue cell viability assay, MDA-MB-231; assay type: cell-based, human; conditions: read-out: IC50 MDA-MB-231 (breast), 72 hours incubation
SKOV-3 = test: Presto Blue cell viability assay, SKOV-3; assay type: cell-based, human; conditions: read-out: IC50 SKOV-3 (ovarian), 72 hours incubation
A2780 = test: Presto Blue cell viability assay, A2780; assay type: cell-based, human; conditions: read-out: IC50 A2780 (ovarian), 72 hours incubation
Caki-1 = test: Presto Blue cell viability assay, Caki-1; assay type: cell-based, human; conditions: read-out: IC50 Caki-1 (renal), 72 hours incubation
T24 = test: Presto Blue cell viability assay, T24; assay type: cell-based, human; conditions: read-out: IC50 T24 (bladder), 72 hours incubation
IMR90 = test: Presto Blue cell viability assay, non-cancerous lung fibroblasts IMR90; assay type: cell-based, human; conditions: read-out: IC50 IMR90 (lung fibroblasts), 72 hours incubation
MDA-MB-157 cells [2] = conditions: read-out: IC50 2D MDA-MB-157; cited from earlier work
plasmid pBR322 DNA = test: Electrophoresis mobility shift assay with plasmid DNA; conditions: no reducing agent, metal/DNAbp 0.2-1.0, 20 h, 37 °C
A549 = test: Presto Blue cell viability assay, A549; assay type: cell-based, human; conditions: read-out: IC50 A549 (lung), 72 hours incubation
MDA-MB-157 cells [3] = test: PrestoBlue cell viability, MDA-MB-157 2D monolayer; assay type: cell-based; conditions: read-out: IC50 2D MDA-MB-157; 72 hours incubation, Presto Blue
MDA-MB-231 cells [4] = test: Annexin V / propidium iodide apoptosis assay by flow cytometry; assay type: cell-based, human; conditions: 72 h incubation with IC50, MDA-MB-231
MDA-MB-231 cell line = assay type: cell-based, human; conditions: IC20 concentration, 24 h
[5] = test system: human umbilical vein endothelial cells (HUVEC); test: Endothelial tube formation assay; assay type: cell-based; conditions: IC10 concentration, 16 h
MDA-MB-231 cells [6] = conditions: MDA-MB-231 TNBC cell line, oxaliplatin treatment alone; cited from earlier work

Structure (SMILES)	inhibition of TrxR activity ([1]; 1 μM of metal compound, 72 h, MDA-MB-231 cells) [%]	inhibition [1] [%]	apoptosis (MDA-MB-468 cell line)	IC50 (MDA-MB-231) [µM]	IC50 (SKOV-3) [µM]	IC50 (A2780) [µM]	IC50 (Caki-1) [µM]	IC50 (T24) [µM]	IC50 (IMR90) [µM]	IC50 (MDA-MB-157 cells [2]) [µM]	plasmid pBR322 band mobility (metal-DNA binding) (plasmid pBR322 DNA)	IC50 (A549) [µM]	IC50 (MDA-MB-157 cells [3]) [µM]	increase of early apoptosis (MDA-MB-231 cells [4]) [%]	inhibition of migration (wound-healing) (MDA-MB-231 cell line) [%]	disruption of tube length (TL) [5] [%]	disruption of tube nodes (TN) [5] [%]	increase in apoptosis (MDA-MB-231 cells [6]) [%]
CC(=O)OC[C@H]1O[C@@H]([S-])[C@H](OC(C)=O)[C@@H](OC(C)=O)[C@@H]1OC(C)=O.CCP(CC)CC.[Au+] [Auranofin]	100	100	–	–	–	–	–	–	–	–	–	–	–	–	–	–	–	–
N.N.O=C([O-])C1(C(=O)[O-])CCC1.[Pt+2] [Carboplatin]	–	–	ca. 60%	–	–	–	–	–	–	–	–	–	–	–	–	–	–	–
N.N.[Cl][Pt][Cl] [cisplatin]	–	26.4	–	7.46 ± 0.62	3.84 ± 0.39	1.4 ± 0.31	3.21 ± 0.88	2.86 ± 0.36	6.21 ± 0.08	21.6	displayed bands for expected DNA-drug interactions	–	–	–	–	–	–	–
O=C1[O][Pt]2([NH][C@@H]3CCCC[C@H]3[NH]2)[O]C1=O [oxaliplatin]	–	29.7	–	10.1 ± 0.89	42.6 ± 3.6	1.82 ± 0.02	8.21 ± 0.07	> 100	29.8 ± 1.3	–	displayed bands for expected DNA-drug interactions	15.8	26.6 ± 1.7	30	20	8	14	30
N.N.[Cl-].[Cl-].[OH-].[OH-].[Pt+4] [oxo-cisplatin, [Pt(NH3)2Cl2(OH)2]]	–	66	–	52.02 ± 0.08	38.6 ± 4.4	2.7 ± 0.4	33.1 ± 2.9	69.9 ± 4.9	53.5 ± 4	–	did not change	67.8	–	–	–	–	–	–
